Experimental data published in patent US20180318271A1, “Use of PDE4 Inhibitors for the Prophylaxis and/or Therapy of Dyslipoproteinaemia and Related Disorders” (Albert-Ludwigs-Universität Freiburg, priority 2015, published 2018).

Assay: clinical trial: lipoprotein profiles in blood serum of patients treated with a PDE4 inhibitor (ultracentrifugation density separation)
Assay type: in vivo, human
Method: In a clinical trial, five patients were treated by daily doses of a PDE4 inhibitor. As an exemplifying and representative compound, roflumilast was used as the PDE4 inhibitor. Lipoprotein profiles were measured at start of the therapy (time T0), four weeks after start (T1) and eight weeks after start (T2). Treatment was further monitored thereafter. In an embodiment, a first unit dose ([…]) was administered orally every second day for a period of four weeks, and subsequently the dose was increased to a unit of […] per day until a time of 8 weeks.
For analysing and measuring the lipoprotein profiles and thus the relative concentrations and levels of lipoprotein fractions and the cholesterol and triglyceride amounts per lipoprotein, 10 ml venous blood was drawn at the indicated time Points. Lipoprotein profiles and fractions were determined using density separation by means of ultra-centrifugation and subsequent determination of the lipoprotein components (Baumstark et al., Biochem. Biophys. Acta—Protein Structure and Molecular Enzymology 1037, 48-57 (1990); Frey et al., Eur. J. Appl, Physiol. 60, 441-444 (1990)). The components and parameters determined include cholesterol and triglyceride proportions of HDL and LDL, and of sub-fractions LDL-1 to LDL-6, and HDL-2a-2b and -3. Statistical analysis of the results was carried out by SPSS 23.0.

[1] = five patients, oral roflumilast, T1 (4 weeks) and T2 (8 weeks) compared to T0, blood serum
[2] = five patients, oral roflumilast, blood serum

Compound: O=C(Nc1c(Cl)cncc1Cl)c1ccc(OC(F)F)c(OCC2CC2)c1 [roflumilast, 3-cyclopropylmethoxy-4-difluoromethoxy-N-(3,5-dichloropyrid-4-yl)-benzamide]
- persistence of the reduction of LDL-C (after 12 weeks (not shown)): maintained over longer time periods
- persistence of the reduction of LDL-TG (after 12 weeks (not shown)): maintained over longer time periods
- change of LDL-TG [1]: substantially reduced
- reduction of LDL-C [1]: approximately 30 mg/dl
- change of HDL-C [2]: Slight reductions
- change of HDL-TG [2]: Slight reductions
